From ChEMBL document CHEMBL5230103, “Hydroxamic acid hybrids as the potential anticancer agents: An Overview” (Eur J Med Chem, 2020)
Counter-ions that a name gives are not always drawn.

Experiments:
PC-3 [1] = assay: Cytotoxicity against human PC-3 cells assessed as inhibition of cell growth by SRB assay; assay type: functional, cell-based
SW-620 [2] = assay: Potency index, ratio of vorinostat IC50 to test compound IC50 for cytotoxicity against human SW620 cells assessed as inhibition of cell growth by SRB assay; assay type: functional
PC-3 [3] = assay: Potency index, ratio of vorinostat IC50 to test compound IC50 for cytotoxicity against human PC-3 cells assessed as inhibition of cell growth by SRB assay; assay type: functional
ASPC1 [4] = assay: Potency index, ratio of vorinostat IC50 to test compound IC50 for cytotoxicity against human ASPC1 cells assessed as inhibition of cell growth by SRB assay; assay type: functional
ASPC1 [5] = assay: Cytotoxicity against human ASPC1 cells assessed as inhibition of cell growth by SRB assay; assay type: functional, cell-based
SW-620 [6] = assay: Cytotoxicity against human SW620 cells assessed as inhibition of cell growth by SRB assay; assay type: functional, cell-based
Histone deacetylase 2 = Histone deacetylase 2 (Homo sapiens, UniProt Q92769); assay: Inhibition of HDAC2 (unknown origin)
Chain of Histone deacetylase 2 (Q92769 whole entry): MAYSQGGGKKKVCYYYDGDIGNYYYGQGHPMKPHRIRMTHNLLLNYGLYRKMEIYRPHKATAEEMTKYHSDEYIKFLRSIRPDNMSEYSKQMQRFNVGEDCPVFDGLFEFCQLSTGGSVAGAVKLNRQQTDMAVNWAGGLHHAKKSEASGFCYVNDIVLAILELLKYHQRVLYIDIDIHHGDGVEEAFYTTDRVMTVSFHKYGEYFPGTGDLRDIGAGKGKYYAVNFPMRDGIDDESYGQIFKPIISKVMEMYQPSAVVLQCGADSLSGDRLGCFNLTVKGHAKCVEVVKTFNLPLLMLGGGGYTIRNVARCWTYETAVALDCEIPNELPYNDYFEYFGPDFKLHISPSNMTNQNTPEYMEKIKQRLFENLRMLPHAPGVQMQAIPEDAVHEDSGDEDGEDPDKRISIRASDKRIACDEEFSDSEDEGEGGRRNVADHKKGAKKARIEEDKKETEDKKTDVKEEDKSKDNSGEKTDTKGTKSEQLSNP

HL-60 = assay: Antiproliferative activity against human HL-60 cells assessed as inhibition of cell growth by MTT assay; assay type: functional, cell-based
[7] = Cytotoxicity against human HuT 102 cells assessed as inhibition of cell growth by MTT assay; assay type: functional, cell-based
518A2 = assay: Cytotoxicity against human 518A2 cells assessed as inhibition of cell growth by MTT assay; assay type: functional, cell-based
[8] = Cytotoxicity against human MCF7/Topo cells assessed as inhibition of cell growth by MTT assay; assay type: functional, cell-based
HCT-116 [9] = assay: Cytotoxicity against human HCT-116 cells assessed as inhibition of cell growth by MTT assay; assay type: functional, cell-based
[10] = Cytotoxicity against chicken heart fibroblast cells; assay type: toxicity, cell-based, Gallus gallus
HT-29 = assay: Cytotoxicity against human HT-29 cells assessed as inhibition of cell growth by MTT assay; assay type: functional, cell-based
PANC-1 = assay: Cytotoxicity against human PANC-1 cells assessed as inhibition of cell growth by MTT assay; assay type: functional, cell-based
KB-V1 = assay: Cytotoxicity against human vinblastine resistant KB-V1 cells assessed as inhibition of cell growth by MTT assay; assay type: functional, cell-based
Histone deacetylase = assay: Inhibition of HDAC (unknown origin); assay type: protein assay, Homo sapiens
Hep 3B2 = assay: Cytotoxicity against human Hep3B cells assessed as inhibition of cell growth by MTT assay; assay type: functional
[11] = target: Histone deacetylase (Homo sapiens) (UniProt Q13547+O15379+Q9UBN7+Q92769+Q9UQL6+Q8WUI4+Q9BY41+Q96DB2+P56524+Q9UKV0+Q969S8); assay: Potency index, ratio of vorinostat IC50 to test compound IC50 for inhibition of HDAC (unknown origin); assay type: protein assay
HCT-116 [12] = assay: Cytotoxicity against human HCT-116 cells assessed as inhibition of cell growth by SRB assay; assay type: functional, cell-based
A549 = assay: Cytotoxicity against human A549 cells assessed as inhibition of cell growth by SRB assay; assay type: functional
MDA-MB-231 = assay: Antitumor activity against human MDA-MB-231 cells xenografted in mouse assessed as reduction on tumor volume at 20 mg/kg, ip relative to control; assay type: functional; parameters: scale not given: the % may be the effect or the level left
MCF7 = assay: Cytotoxicity against human MCF7 cells assessed as inhibition of cell growth by SRB assay; assay type: functional, cell-based
Jurkat E6.1 = assay: Cytotoxicity against human Jurkat E6.1 cells assessed as inhibition of cell growth by MTT assay; assay type: functional, cell-based
[13] = target: Histone deacetylase 8 (Homo sapiens) (UniProt Q9BY41); assay: Inhibition of HDAC8 (unknown origin) at 25 nM relative to control
Chain of Histone deacetylase 8 (Homo sapiens) (Q9BY41 whole entry): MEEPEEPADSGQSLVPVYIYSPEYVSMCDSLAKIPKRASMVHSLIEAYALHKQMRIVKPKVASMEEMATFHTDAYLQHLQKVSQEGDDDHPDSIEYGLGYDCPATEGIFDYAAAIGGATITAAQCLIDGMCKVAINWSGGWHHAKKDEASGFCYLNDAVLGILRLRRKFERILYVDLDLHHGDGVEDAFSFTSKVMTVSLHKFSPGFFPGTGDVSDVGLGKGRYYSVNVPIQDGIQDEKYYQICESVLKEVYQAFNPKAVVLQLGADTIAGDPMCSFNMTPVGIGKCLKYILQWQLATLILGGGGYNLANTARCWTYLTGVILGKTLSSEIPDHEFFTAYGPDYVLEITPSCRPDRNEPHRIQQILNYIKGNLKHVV

SMILES: O=C(/C=C/c1ccc(CN2C/C(=N\O)c3cc(Cl)ccc32)cc1)NO
- IC50 (PC-3 [1]): 470 nM
- Ratio IC50 (SW-620 [2]): 1.8
- Ratio IC50 (PC-3 [3]): 1.8
- Ratio IC50 (ASPC1 [4]): 1.8
- IC50 (ASPC1 [5]): 470 nM
- IC50 (SW-620 [6]): 470 nM
- IC50 (Histone deacetylase 2): 86 nM

SMILES: O=C(/C=C/c1ccc(S(=O)(=O)Nc2ccccc2C(F)(F)F)cc1)NO
- IC50 (HL-60): 770 nM
- IC50 [7]: 770 nM

SMILES: COc1ccc(-c2ncn(C)c2-c2ccc(/C=C/C(=O)NO)cc2)cc1
- IC50 (518A2): 300 nM
- IC50 [8]: 300 nM
- IC50 (HCT-116 [9]): 300 nM
- IC50 [10]: > 150000 nM
- IC50 (HT-29): 300 nM
- IC50 (PANC-1): 300 nM
- IC50 (KB-V1): 300 nM

SMILES: CCn1c(C)c(CCNS(=O)(=O)c2ccc(/C=C/C=C/C(=O)NO)cc2)c2ccccc21
- GI50 (PC-3 [1]): 20 nM
- IC50 (Histone deacetylase): 3.3 nM
- GI50 (Hep 3B2): 20 nM
- Ratio IC50 [11]: 35
- GI50 (HCT-116 [12]): 20 nM
- GI50 (A549): 20 nM

SMILES: O=C(CCCCCCC(=O)Nc1ccccc1)NO [VORINOSTAT]
- Activity (MDA-MB-231): 40%

SMILES: Cn1cnc(-c2ccc(F)cc2)c1-c1ccc(/C=C/C(=O)NO)cc1
- IC50 (518A2): 300 nM
- IC50 [8]: 300 nM
- IC50 (HCT-116 [9]): 300 nM
- IC50 [10]: > 150000 nM
- IC50 (HT-29): 300 nM
- IC50 (PANC-1): 300 nM
- IC50 (KB-V1): 300 nM

SMILES: COc1cccc2c1C(=O)c1c(O)c3c(c(O)c1C2=O)C[C@@](O)(C(=O)CO)C[C@@H]3O[C@H]1C[C@H](N)[C@H](O)[C@H](C)O1 [DOXORUBICIN HYDROCHLORIDE]
- GI50 (MCF7): 50200 nM

SMILES: CCn1cnc(-c2ccc(OC)cc2)c1-c1ccc(/C=C/C(=O)NO)cc1
- IC50 (518A2): 300 nM
- IC50 [8]: 300 nM
- IC50 (HCT-116 [9]): 300 nM
- IC50 [10]: > 150000 nM
- IC50 (HT-29): 300 nM
- IC50 (PANC-1): 300 nM
- IC50 (KB-V1): 300 nM

SMILES: Nc1ccnc(NC(=O)[C@@H](N)CCCCC(=O)NO)n1
- IC50 (Jurkat E6.1): 20000 nM
- inhibition [13]: 75%

SMILES: O=C(CCCCCCC(=O)Nc1cccc2ccn(S(=O)(=O)c3ccccc3)c12)NO
- Activity (MDA-MB-231): 68%

SMILES: Cc1c(CCNS(=O)(=O)c2ccc(/C=C/C=C/C(=O)NO)cc2)c2ccccc2n1C
- GI50 (PC-3 [1]): 20 nM
- IC50 (Histone deacetylase): 3.4 nM
- GI50 (Hep 3B2): 20 nM
- Ratio IC50 [11]: 35
- GI50 (HCT-116 [12]): 20 nM
- GI50 (A549): 20 nM
